Data on 3 molecules can be found in patent US20260297136A1, “PEPTIDES WITH LIPOLYTIC, ANTI-LIPOGENIC, ANTIFIBROTIC AND ANTI-INFLAMMATORY ACTIVITY” (FUNDACIÓ HOSPITAL UNIVERSITARI VALL D'HEBRON - INSTITUT DE …, priority 2023, published 2026).

Structures are written as SMILES.

In assay [1] the test system is human mature adipocytes. The assay is described as follows: Lipolysis in human mature adipocytes (glycerol production), Example 2. The conditions noted are these: 16 h; for increase of glycerol production (lipolysis): 10 μM, with respect to control cells. It counts as cell-based. The procedure:
FIG. 7. Mature human subcutaneous adipocytes were treated with vehicle (DMSO), 3 μM of Isoproterenol or 10 μM of GP4, GP8 or GP9 for 16 h. Glycerol concentration was assessed using a Lipolysis Assay Kit (Tebu-bio). Lipolysis induction was calculated with respect to the control cells treated with DMSO.
(§1) Human preadipocytes and cell culture reagents were from purchased from Tebu-Bio (Tebu-bio, Barcelona, Spain) and differentiation protocol was done following the manufacturer's instructions. Human adipocytes were maintained in a humidified incubator with 5% CO2 at 37° C. (Sex hormone-binding globulin overexpression protects against high-fat diet-induced obesity in transgenic male mice. Saez-Lopez C, Villena J A, Simo R, Selva D M. J Nutr Biochem. 2020 November; 85:108480. doi: 10.1016/j.jnutbio.2020.108480).
Lipolysis assays were performed using a Lipolysis Kit (Tebu-Bio) following the manufacturer's instructions as previously described.

For assay [2], the system named is human mature adipocytes. The assay is described as follows: Lipolysis in human mature adipocytes (glycerol production), Example 3. Format: cell-based. The conditions noted are these: Homo sapiens, Adipocyte; 1 μM, 16 h, with respect to controls; read-out: increase of glycerol concentration (lipolysis positive control). The procedure:
FIG. 4 Mature human subcutaneous adipocytes were treated with vehicle (DMSO), 1 μM of Isoproterenol, Semaglutide (10 nM) or GP6 (25, 50 or 100 μg/ml) for 16 h. Glycerol concentration was assessed using a Lipolysis Assay Kit (Tebu-bio).
as §1
Lipolysis assays were performed using a Lipolysis Kit (Tebu-Bio) following the manufacturer's instructions as previously described by Saez-Lopez and collaborators (Sex hormone-binding globulin overexpression protects against high-fat diet-induced obesity in transgenic male mice. Saez-Lopez C, Villena J A, Simo R, Selva D M. J Nutr Biochem. 2020 November; 85:108480. doi: 10.1016/j.jnutbio.2020.108480.)

Assay [3] deals with HepG2 cells. Briefly: Hepatic lipogenesis gene expression (ACC, FAS, ACLY mRNA by RTPCR) in HepG2 cells, Example 2. Format: cell-based, human. Particulars: 10 μM, 24 h, relative to 18S. The method, then: FIG. 5 Human hepatoblastoma cell line HepG2 was treated with vehicle (DMSO) or 10 μM of GP4, GP7, GP8 or GP9 for 24 h. RNA was extracted and mRNA levels of Acetyl-CoA Carboxylase (ACC), Fatty Acid Synthase (FAS) and ATP-Citrate Lyase (ACLY) relative to 18S were measured by RTPCR.
Cell culture reagents were from Life Technologies Inc (Invitrogen SA, Barcelona, Spain). HepG2 hepatoblastoma cells (cat. no. HB-8065; ATCC, LGC Standards SLU, Barcelona, Spain) were maintained in Dulbecco's modified Eagle medium (DMEM) supplemented with 10% fetal bovine serum and antibiotics. HepG2 cells were treated with vehicle or 10 μM of GP4, GP7, GP8 and GP9 for 24 h. LX-2 human hepatic stellate cells (SCC064) were maintained in DMEM supplemented with 2% fetal bovine serum and antibiotics. For experiments, LX-2 were cultured for 24 h in DMEM 0.2% FBS and treated for 24 h with vehicle or TGFβ1 (20 ng/ml) in the absence or presence of 8 μM of GP4, GP7, GP8 and GP9 for 24 h. At the end of the experiment's cells were harvested for gene expression analysis.
Total RNA was extracted from HepG2 and LX-2 cells using TRIzol reagent (Invitrogen SA). Reverse transcription was performed at 42° C. for 50 minutes using […] of total RNA, 200 U of Superscript II, and an oligo-dT primer and reagents provided by Invitrogen. An aliquot of the reverse transcription product was amplified in a […] reaction using SYBRGreen (Invitrogen SA) with appropriate oligonucleotide primer pairs corresponding to human ACC, FAS, ACLY, Col1A1 and 18S (shown in table 7). Results were analyzed using the 7000 Sequence Detection System program (Applied Biosystems, Thermo Fisher Scientific, Barcelona, Spain) (Sex Hormone-Binding Globulin Reduction in Metabolic Disorders May Play a Role in NAFLD Development.Saez-Lopez C, Barbosa-Desongles A, Hernandez C, Dyer R A, Innis S M, Simo R, Selva D M. Endocrinology. 2017 Mar. 1; 158(3):545-559. doi: 10.1210/en.2016-1668).

The test system of assay [4] is HepG2 cells. The assay is described as follows: Hepatic lipogenic key enzymes in HepG2 cells in the presence of 30 mM fructose (2 h), Example 7. Format: cell-based, human. Particulars: 40 μg/ml. The procedure: FIG. 34. Effects of different peptides and SHBG in reducing hepatic lipogenic key enzymes in the presence of 30 mM fructose. Each bar within each group represents mRNA levels of a key hepatic lipogenic enzyme, from left to right: Acetyl-CoA Carboxylase (ACC), ATP Citrate Lyase (ACLY) and Fatty Acid Synthase (FAS), and a key transcription factor regulating several lipogenic enzymes such as PPARγ (PPARγ).
Cell culture reagents were from Life Technologies Inc (Invitrogen SA, Barcelona, Spain). HepG2 hepatoblastoma cells (cat. no. HB-8065; ATCC, LGC Standards SLU, Barcelona, Spain) were maintained in Dulbecco's modified Eagle medium (DMEM) supplemented with 10% fetal bovine serum and antibiotics.
• HepG2 cells were cultured for 5 day in the absence or presence of 30 mM fructose. Cells cultured in 30 mM fructose were daily treated with vehicle, Telmisartan, Semaglutide or EDL6D. • HepG2 cells were cultured for 24 h in the absence or presence of GP6 (40 μg/ml), GP10 (40 μg/ml), GP11 (40 μg/ml), GP12 (40 μg/ml), GP13 (40 μg/ml) or SHBG (20 nM). • HepG2 cells were cultured in the absence or presence of 30 mM fructose and treated for 2 h with vehicle or GP4 (40 μg/ml), GP6 (40 μg/ml), GP7 (40 μg/ml), GP8 (40 μg/ml), GP9 (40 μg/ml), GP10 (40 μg/ml), GP11 (40 μg/ml), GP12 (40 μg/ml), GP13 (40 μg/ml) or SHBG (20 nM).
Total RNA was extracted from HepG2 and LX-2 cells using TRIzol reagent (Invitrogen SA). Reverse transcription was performed at 42° C. for 50 minutes using […] of total RNA, 200 U of Superscript II, and an oligo-dT primer and reagents provided by Invitrogen. An aliquot of the reverse transcription product was amplified in a […] reaction using SYBRGreen (Invitrogen SA) with appropriate oligonucleotide primer pairs corresponding to human SHBG, ACC, FAS, ACLY, PPARG, and 18S and mouse ACC, FAS, ACLY, PPARG, Col1A1 and 18S. Results were analyzed using the 7000 Sequence Detection System program (Applied Biosystems, Thermo Fisher Scientific, Barcelona, Spain) (Shez-Lopez et al Endocrinology 2017).

For assay [5], the system named is LX-2 cells. Briefly: Fibrosis in LX-2 cells: Col1A1 mRNA induced by TGFβ1, Example 2. Format: cell-based, human. Particulars: 8 μM, 24 h. The procedure:
FIG. 6. Human hepatic stellate cell line LX-2 was treated with vehicle (DMSO) or TGFβ1 (10 ng/ml) in the absence or presence of 8 μM of GP8 or GP9 for 24 h. RNA was extracted and mRNA levels of collagen 1A1 (Col1A1) relative to 18S were measured by RTPCR.
Cell culture reagents were from Life Technologies Inc (Invitrogen SA, Barcelona, Spain). HepG2 hepatoblastoma cells (cat. no. HB-8065; ATCC, LGC Standards SLU, Barcelona, Spain) were maintained in Dulbecco's modified Eagle medium (DMEM) supplemented with 10% fetal bovine serum and antibiotics. HepG2 cells were treated with vehicle or 10 μM of GP4, GP7, GP8 and GP9 for 24 h. LX-2 human hepatic stellate cells (SCC064) were maintained in DMEM supplemented with 2% fetal bovine serum and antibiotics. […]
Total RNA was extracted from HepG2 and LX-2 cells using TRIzol reagent (Invitrogen SA). […] Results were analyzed using the 7000 Sequence Detection System program (Applied Biosystems, Thermo Fisher Scientific, Barcelona, Spain) (Sex Hormone-Binding Globulin Reduction in Metabolic Disorders May Play a Role in NAFLD Development.Saez-Lopez C, Barbosa-Desongles A, Hernandez C, Dyer R A, Innis S M, Simo R, Selva D M. Endocrinology. 2017 Mar. 1; 158(3):545-559. doi: 10.1210/en.2016-1668).

Turning to `CC(C)NCC(O)c1ccc(O)c(O)c1` (stereo not shown) [isoproterenol, 4-[1-hydroxy-2-(propan-2-ylamino)ethyl]benzene-1,2-diol, reference compound], the activation at 3 µM in assay [1] (Homo sapiens, Adipocyte, 3 μM, with respect to control, read-out: increase of glycerol concentration (lipolysis positive control)) came to 370%. Moreover, in assay [2], the activation at 1 µM came to 400%.

Take `CC[C@@H](C)[C@@H](NC(=O)[C@@H](CCCCN)NC(=O)[C@H](NC(=O)[C@@H](CC(C)C)NC(=O)[C@@H](CC(=O)O)NC(=O)[C@@H](Cc1ccccc1)NC(=O)[C@H](NC(=O)[C@@H](CCSC)NC(=O)[C@H](N)C(C)C)[C@H](C)O)[C@H](C)O)C(=O)N[C@@H](C(=O)N[C@H](CCCCN)C(=O)N[C@@H](C(=O)N[C@H](CO)C(=O)N[C@H](CO)C(=O)N[C@H](CO)C(=O)N[C@H](Cc1ccccc1)C(=O)N[C@H](CCC(=O)O)C(=O)N[C@@H](C(=O)N[C@H](CCCNC(=N)N)C(=O)N[C@@H](C(=O)N[C@H](Cc1c[nH]c2ccccc12)C(=O)N[C@H](CC(=O)O)C(=O)N1CCC[C@@H]1C(=O)N[C@H](CCC(=O)O)C(=O)NCC(=O)N[C@@H](C(=O)N[C@@H](C(=O)N[C@H](Cc1ccccc1)C(=O)N[C@H](Cc1ccc(O)cc1)C(=O)O)[C@H](C)CC)C(C)C)[C@H](C)O)C(C)C)[C@H](C)O)[C@H](C)O` [GP4]: in assay [3], the “ATP-Citrate Lyase (ACLY) mRNA levels” value is “did not alter”, the “Acetyl-CoA Carboxylase (ACC) mRNA levels” value is “reduced” and the “Fatty Acid Synthase (FAS) mRNA levels” value is listed as “increased”. For the same molecule, in assay [1], the “increase of glycerol production (lipolysis)” value came to 500%. In assay [4], the “fructose-induced expression of ACC” value is reported as “able to reduce”, the “fructose-induced expression of ACLY” value is recorded as “able to reduce”, the “fructose-induced expression of FAS” value was “able to reduce” and the “fructose-induced expression of PPARγ” value was “able to reduce”.

In the case of `CC[C@@H](C)[C@@H](NC(=O)[C@H](NC(=O)CNC(=O)[C@@H](CCC(=O)O)NC(=O)[C@H]1CCCN1C(=O)[C@@H](CC(=O)O)NC(=O)[C@@H](Cc1c[nH]c2ccccc12)NC(=O)[C@H](N)[C@H](C)O)C(C)C)C(=O)N[C@H](Cc1ccccc1)C(=O)N[C@H](Cc1ccc(O)cc1)C(=O)NCC(=O)N[C@H](CC(=O)O)C(=O)N[C@@H](C(=O)N[C@H](CC(N)=O)C(=O)N1CCC[C@@H]1C(=O)N[C@H](CCCCN)C(=O)N[C@H](CC(=O)O)C(=O)N[C@H](CC(=O)O)C(=O)N[C@H](Cc1c[nH]c2ccccc12)C(=O)N[C@H](Cc1ccccc1)C(=O)N[C@H](CCSC)C(=O)N[C@H](CC(C)C)C(=O)NCC(=O)N[C@H](CC(C)C)C(=O)N[C@H](CCCNC(=N)N)C(=O)N[C@H](CC(=O)O)C(=O)NCC(=O)N[C@H](CCCNC(=N)N)C(=O)N1CCC[C@@H]1C(=O)N[C@H](CCC(=O)O)C(=O)O)[C@H](C)O` [GP9], in assay [3], the “ATP-Citrate Lyase (ACLY) mRNA levels” value is listed as “did not alter”, the “Acetyl-CoA Carboxylase (ACC) mRNA levels” value is reported as “did not alter” and the “Fatty Acid Synthase (FAS) mRNA levels” value was “reduced”. Further, the “reduction of Col1A1 mRNA levels induced by TGFβ1” value in assay [5] turned out to be 21%. For the same molecule, the “increase of glycerol production (lipolysis)” value in assay [1] stood at 170%. In assay [4], the “fructose-induced expression of ACC” value was “able to reduce the expression of ACC and ACLY more effectively than SHBG”; the “fructose-induced expression of ACLY” value is “able to reduce the expression of ACC and ACLY more effectively than SHBG”; the “fructose-induced expression of FAS” value is given as “had no effect on FAS”; the “fructose-induced expression of PPARγ” value was “increased PPARγ expression”.
